According to patent US20210002611A1, “IMPROVED ALPHA-BETA T PROCESSED CELL PRODUCTION METHOD” (OSAKA UNIVERSITY, priority 2018, published 2021):

Assays:
αβ T processed cells [1] = experiment: Cytokine production of αβ T processed cells (Bio-plex); format: cell-based, human; conditions: culture supernatant after 24 hours in RPMI 1640 + 10% FCS without IL-2; 4 healthy donor samples; vs cont
Description: The cytokine production ability of the αβ T processed cells prepared in Example 1 was determined by using Bio-plex “human cytokine G1 27 plex panel” (Bio-Rad Laboratories, Inc.) (FIG. 2A). Specifically, the αβ T processed cells prepared in Example 1 were replaced in a medium containing RPMI 1640 and 10% FCS in the absence of IL-2, and cultured. The culture supernatant after 24 hours from the start of the culture was recovered, and subjected to measurement.

αβ T processed cells [2] = experiment: Perforin and granzyme B in culture supernatant after PMA/ionomycin stimulation (ELISA); format: cell-based, human; conditions: after PMA (5 ng/ml) and ionomycin (0.5 μg/ml) stimulation; 4 healthy donor samples; vs cont
Description: Furthermore, perforin and granzyme B in the culture supernatant after the degranulation due to the PMA (5 ng/ml) and ionomycin (0.5 μg/ml) stimulation were determined by using Human Perforin ELISA Kit and Human Granzyme B ELISA Kit (Abcam plc.), respectively (FIG. 2B).

[3] = test system: Daudi (Burkitt's lymphoma cell line); experiment: In vitro cytotoxic activity against cultured cells (Calcein-AM, Terascan); format: cell-based, human; conditions: cancer cells:αβ T processed cells 1:25, 2 to 4 hours; vs conventional method
Description: (§1) The cytotoxic activity test by fluorescent staining was performed by using Terascan VPC2 (Minerva Tech K.K.). Cancer cell line K562 (leukemia cell line), Daudi (Burkitt's lymphoma cell line), and HOS (osteosarcoma cell line), and DLD1 (colon cancer cell line) were labeled for 30 minutes with 2.55 to 5 μg/mL of fluorescent dye Cellstein R-Calcein-AM solution (DOJINDO LABORATORIES). The labeled cancer cells and the αβ T processed cells were mixed at a ratio of 1:25, and the mixed cells were incubated for 2 to 4 hours in RPMI 1640 and 10% FBS (in the absence of IL-2). The cytotoxic activity was calculated by using changes in the fluorescence intensity of the cancer cells co-cultured with the αβ T processed cells as an index, assuming the fluorescence decay rate when treated with 1% NP40 (surfactant) as 100% (FIG. 2C).

Daudi cells = experiment: Degranulation: CD107a exposure on CD8+ T cells in co-culture with cancer cells; format: cell-based, human; conditions: co-culture with Daudi cells 25:1, 6 hours
Excerpt: (§2) In the αβ T processed cells treated with 2DG as described above, secretions of effector factors such as cytokines, perforin, and granzyme B were promoted, and the cytotoxic activity was enhanced. Since exposure of CD107a localized in an intracellular vesicle onto the cell surface serves as an index of degranulation for the release of an effector factor from a cytotoxic T cell or a NK cell, the exposure of CD107a onto the cell surface by co-culture with cancer cells having different cytotoxicity was detected.
(§3) In the presence of APC-labeled anti-CD107a antibodies (BioLegend, Inc.), the αβ T processed cells and cancer cells were mixed at a ratio of 25:1, and the mixed cells were cultured for 6 hours. After the washing of the cultured cells, the washed cells were stained with PE-labeled anti-CD8 antibodies (Beckman Coulter, Inc.). The cells thus stained were subjected to measurement by using a flow cytometer FACS CantoII (BD Biosciences), and the obtained data were analyzed by using Kaluza (Beckman Coulter, Inc.) software (FIG. 2D).

K562 cells = experiment: as above; format: cell-based, human; conditions: co-culture with K562 cells 25:1, 6 hours
Excerpt: as §2, §3

[4] = test system: sugar chains of αβ T processed cells; experiment: LC-MS mass spectrometry analysis of sugar chains on cell surface; format: cell-based, human; conditions: summary of Table 1
Excerpt: From the αβ T processed cells, sugar chains were purified and labeled by using BlotGlyco (Sumitomo Bakelite Co., Ltd.), and then the purified and labeled sugar chains were subjected to LC-MS mass spectrometry analysis (FIG. 5A).

galectin-3 = experiment: Galectin-3 binding ability of αβ T processed cells (flow cytometry); format: cell-based; conditions: cells cultured with 0 to 4 mM of 2DG; recombinant galectin-3, 4° C., 30 minutes; vs cont
Description: The galectin-3 binding ability was detected with FITC-labeled anti-mouse IgG antibodies (Jackson ImmunoResearch Laboratories, Inc.). In this regard, as an experimental control of the galectin-3 binding, addition of 0.1 M of lactose (Sigma-Aldrich Co. LLC) for inhibiting the binding of galectin to sugar chains was performed. The measurement was performed by using a flow cytometer FACS CantoII (BD Biosciences), and the data were analyzed by using Kaluza (Beckman Coulter, Inc.) software.

cancer cells [5] = experiment: Suppression of cytotoxic activity of 2DG-treated αβ T processed cells by D-mannose; format: cell-based, human; conditions: 2 mM D-mannose or L-mannose added to the culture with 2 mM 2DG
Description: as §1
Therefore, it was investigated whether or not the cytotoxic activity ability was suppressed by adding D-mannose to the processing of αβ T cells treated with 2DG.
In the preparation of Example 1, αβ T processed cells were prepared with the addition of 2 mM of D-mannose (Sigma-Aldrich Co. LLC) or L-mannose (Tokyo Chemical Industry Co., Ltd.), and the prepared αβ T processed cells were subjected to the measurement of cytotoxic activity by the method described in item 3.2.

αβ T processed cells [6] = experiment: Intracellular perforin production in αβ T processed cells (flow cytometry, MFI); format: cell-based, human; conditions: 2 mM D-mannose or L-mannose added to the culture with 2 mM 2DG; for Intracellular granzyme B: data not shown
Description: Next, it was verified whether or not mannose inhibited the increase in the amount of intracellular perforin of the αβ T processed cells treated with 2DG. In the preparation of Example 1, αβ T processed cells were prepared with the addition of 2 mM of D-mannose (Sigma-Aldrich Co. LLC) or L-mannose (Tokyo Chemical Industry Co., Ltd.), the prepared cells were treated with IntraPrep Permeabilization Reagent (Beckman Coulter, Inc.), and the expression level of the intracellular perforin was determined by staining the cells with APC-labeled anti-perforin antibodies. The stained cells were subjected to measurement by using a flow cytometer FACS CantoII (BD Biosciences), and the data were analyzed by using Kaluza (Beckman Coulter, Inc.) software. The Mean Fluorescence Intensity (MFI) value is mean fluorescence intensity, and reflects the expression level.

IL-2 receptor = IL-2 receptor expression on αβ T processed cells (flow cytometry); format: cell-based, human; conditions: cells cultured with 2DG and D-mannose
Description: It is known that the intracellular perforin and granzyme B in effector cells are induced and expressed by the stimulation from IL-2 receptor on a T cell. Therefore, the expression of the IL-2 receptor was confirmed. […] The obtained resuspension was passed through a cell strainer to remove aggregates. The obtained cells were incubated for 1 hour on ice, together with PE/Cy5-labeled anti-IL-2R antibodies (BioLegend, Inc.), and FITC-labeled anti-CD3 antibodies (Beckman Coulter, Inc.), and after the washing of the incubated cells, the measurement was performed by using a flow cytometer FACS Cantoll (BD Biosciences). The data were analyzed by using Kaluza (Beckman Coulter, Inc.) software.

cancer cells [7] = experiment: Cytotoxic activity of αβ T processed cells cultured with a glycolytic inhibitor; format: cell-based, human; conditions: cells prepared with oxamate (2 mM) or bromo pyruvate (10 μM); vs cells not treated with 2DG
Description: as §1
By using the method described in 3.2. of Example 3, the cytotoxic activity against each of cancer cells, by the αβ T processed cells treated with oxamate (2 mM) or bromo pyruvate (10 μM), which is a glycolytic inhibitor, was examined.

OCC1O[C@H](O)C[C@@H](O)[C@@H]1O (mixture of isomers) [2DG, 2-deoxy-d-glucose]
Secretion of cytokines (IL-2, IFN-γ, TNFα) (αβ T processed cells [1]): increased by 2DG treatment in 3 cases out of 4 cases
Secretion of granzyme B (αβ T processed cells [2]): increased by 2DG treatment in 3 cases out of 4 cases
Secretion of perforin (αβ T processed cells [2]): increased by 2DG treatment in 3 cases out of 4 cases
Cytotoxic activity against Daudi [3]: had not been increased
Exposure of CD107a onto the cell surface (degranulation of CD8+ T cells) (Daudi cells): not promoted
Exposure of CD107a onto the cell surface (degranulation of CD8+ T cells) (K562 cells): promoted
Effect of 2DG treatment on N-glycans (sugar chain analysis) [4]: abnormal increase of the mature branched N-glycan in which deoxyhexose had been introduced
Galectin-3 binding ability (galectin-3): reduced in a dose-dependent manner

O=C[C@@H](O)[C@@H](O)[C@H](O)[C@H](O)CO [D-mannose]
Cytotoxic activity of αβ T processed cells cultured with 2DG plus mannose (cancer cells [5]): reduced the effect of 2DG
Intracellular perforin expression level (MFI) (αβ T processed cells [6]): reduced the effect of 2DG
Intracellular granzyme B (αβ T processed cells [6]): the results were also similar
Expression of the IL-2 receptor on a cell surface (IL-2 receptor): suppressed

O=C[C@H](O)[C@H](O)[C@@H](O)[C@@H](O)CO [L-mannose]
Cytotoxic activity of αβ T processed cells cultured with 2DG plus mannose (cancer cells [5]): no influence on the cytotoxic activity of 2DG
Intracellular perforin expression level (MFI) (αβ T processed cells [6]): no influence
Intracellular granzyme B (αβ T processed cells [6]): the results were also similar

NC(=O)C(=O)O [oxamate]
Cytotoxic activity against cancer cells (cancer cells [7]): no enhancement of the cytotoxic activity was observed
